Results published in US9259452B2, “Deacetylase inhibitor therapy” (Celgene Corporation, priority 2006, dated 2016).
Where “and” joins values, the source holds several entries; their conditions need not be identical. Identical values can stand only once.

Assays:
[1] = Left ventricular ejection fraction (LVEF) evaluation by MUGA, echocardiogram or cardiac MRI; format: in vivo, human
Method: Evaluation of left ventricular ejection fraction: LVEF evaluations were performed at baseline, after the second cycle and every 3 cycles thereafter using MUGA, echocardiogram or cardiac MRI (23, 24). A patient's on-study and last available LVEF are included in this analysis. Cardiac measurements were performed according to the American Society of Echocardiography guidelines (25). LVEFs from echocardiograms were evaluated by an independent reviewer in a blinded manner and were assessed using the biplane Simpson's method.

[2] = Post-treatment echocardiogram, global LV function; format: in vivo, human
Method: Post treatment evaluation of cardiac function (LVEF): Echocardiograms to evaluate cardiac function were also performed on the day following the last dose of the cycle; day 6 for patients treated on days 1 and 5, or day 16 for patients treated on days 1, 8 and 15.
Post-treatment global LV function: To determine whether the observed ECG abnormalities were associated with acute LV wall motion abnormalities, echocardiograms were performed on the day following the last dose of the cycle (d 6 for patients treated on days 1 and 5, and day 16 for patients treated on days 1, 8, and 15).

[3] = 16 patients receiving at least 6 cycles
[4] = 16 patients receiving at least 6 cycles, baseline
[5] = among 123 ECGs, day 6 or day 16

For `C/C=C1\NC(=O)[C@H]2CSSCC/C=C/[C@H](CC(=O)N[C@H](C(C)C)C(=O)N2)OC(=O)[C@H](C(C)C)NC1=O` [romidepsin, (1S,4S,10S,16E,21R)-7-[(2Z)-ethylidene]-4,21-diisopropyl-2-oxa-12,13-dithia-5,8,20,23-tetraazabicyclo[8.7.6]tricos-16-ene-3,6,9,19,22-pentanone], the “Pre-treatment versus post-treatment LVEF” value ([1]; 8 patients with six or more cycles and prior doxorubicin) was “did not demonstrate a difference in pre-treatment and post-treatment LVEF”, the “Latest EF, Median” value [1, 3] was 63.5% and the “Latest EF, Range” value [1, 3] was 50-80%. The “Starting EF, Median” value [1, 4] was 65.5%, the “Starting EF, Range” value [1, 4] was 50-85% and the “LVEF evaluations versus baseline” value ([1]; 16 patients who received six or more cycles, median cumulative dose 390 mg/m^2) was “did not demonstrate a change from baseline”. The “EF by MUGA, On-study Median (range)” value ([1]; All patients (19), baseline) was 61% (46-85), the “EF by Echocardiogram, On-study Median (range)” value ([1]; All patients (23), baseline) was 67% (53-85) and the “Median actual change in LVEF, on-study to last scan” value ([1]; MUGA scans, 13 patients, median 20.3 weeks) was 1%. For the same compound, the “EF by MUGA, Last evaluation Median (range)” value ([1]; Patients treated with >6 cycles (7)) was 61% (50-68), the “EF by MUGA, On-study Median (range)” value ([1]; Patients treated with >6 cycles (7), baseline) was 64% (50-77) and the “EF by Echocardiogram, Last evaluation Median (range)” value ([1]; Patients treated with >6 cycles (9)) was 68% (58-80). The “EF by Echocardiogram, On-study Median (range)” value ([1]; Patients treated with >6 cycles (9), baseline) was 69% (56-85), the “EF by MUGA, Last evaluation Median (range)” value ([1]; Patients with pre- and post treatment evaluations (13)) was 61% (50-91) and the “EF by MUGA, On-study Median (range)” value ([1]; Patients with pre- and post treatment evaluations (13), baseline) was 62% (46-85). For the same compound, the “EF by Echocardiogram, Last evaluation Median (range)” value ([1]; Patients with pre- and post treatment evaluations (22)) was 64% (53-87), the “EF by Echocardiogram, On-study Median (range)” value ([1]; Patients with pre- and post treatment evaluations (22), baseline) was 67% (53-85) and the “Median actual change in LVEF, on-study to last scan” value ([1]; echocardiograms, 22 patients, median 18.4 weeks) was −1%. The “Latest EF” value ([1]; individual patients receiving at least 6 cycles of therapy) was 50% and 78% and 61% (3×) and 72% and 68% (3×) and 80% and 58% (2×) and 70% and 63% and 64% and 60%, the “Starting EF” value ([1]; individual patients receiving at least 6 cycles of therapy, baseline) was 52% and 69% and 56% and 67% and 70% (2×) and 85% (2×) and 68% and 58% and 59% and 64% (2×) and 50% and 77% and 54% and the “ECGs with ST-segment depression obtained on the same day as the echocardiogram” value [2, 5] was 23. For the same compound, the “ECGs with T-wave flattening obtained on the same day as the echocardiogram” value [2, 5] was 82, the “ECGs with no abnormalities obtained on the same day as the echocardiogram” value [2, 5] was 18 and the “Echocardiograms demonstrating a change from baseline (acute LV wall motion)” value ([2]; day following last dose of the cycle (day 6 or day 16), 145 echocardiograms, 34 patients) was “None”.
